PMC11306511, “Combining VPS34 inhibitors with STING agonists enhances type I interferon signaling and anti‐tumor efficacy” (Molecular Oncology, 2024)

Legend:
[1] = design: method as in PMID 34070756; settings: cited from earlier work
[2] = test system: B16-F10 tumors; assay: Tumor growth inhibition study, B16-F10 tumor-bearing mice; format: in vivo, mouse; settings: B16-F10 in C57BL/6 mice; SB02024 20 mg·kg^−1 oral daily day 7-16; ADU-S100 10 μg intratumoral days 9, 11, 13, 15
From the text: Study protocols were approved by the Institutional Animal Care and Use Committee of CrownBio in China (AN‐1903‐05‐313) or the LIH's animal welfare committee in Luxembourg (agreement LECR‐2018‐12). Mice were handled according to European Union guidelines, adhering to the principles of replacement, reduction, and refinement (3Rs). Animals were housed in appropriate accommodations conducive to their well‐being, with provisions for housing, feeding, and environmental enrichment to meet their physical and behavioral needs. Highly skilled personnel were involved in carrying out procedures related to the animal experiments to ensure proper care and handling. Female 6 to 8‐week‐old BALB/c (supplied by Shanghai Lingchang Biotechnology Co., Shanghai, China; n = 14) or C57BL/6 mice (supplied by Janvier Labs, Le Genest‐Saint‐Isle, France; n = 40) were injected into the right flank with 1 × 10^6 Renca or 0.2 × 10^6 B16‐F10 cells, respectively, resuspended in 100 μL PBS (day 0). When tumors were palpable (day 9 for Renca, day 7 for B16‐F10 tumors), mice were randomly assigned into two groups for the Renca model with n = 6 (vehicle) and n = 8 (SB02024) or four groups for the B16‐F10 model with n = 10. […] Tumor growth was measured using a caliper every other day and estimated as follows: volume (cm^3) = (width)^2 × length × 0.5.

## Nc1ncnc2c1ncn2[C@@H]1O[C@@H]2COP(=O)([S-])O[C@@H]3[C@H](O)[C@@H](COP([O-])(=S)O[C@H]2[C@H]1O)O[C@H]3n1cnc2c(N)ncnc21.[Na+].[Na+] (some centres unmarked) [ADU-S100, reference compound]
[1]
  anti-tumor efficacy in clinical trials: only limited
[2]
  % TGI (percent tumor growth inhibition compared to vehicle control): 36%
